Where two headings read alike, the source gives them in different places. Some results are limits rather than exact numbers.

Here are results for 36 molecules from patent US11479551B2, “MTA-cooperative PRMT5 inhibitors” (Mirati Therapeutics, Inc., priority 2019, dated 2022).

In the assay the target is PRMT5/MEP50 complex (Homo sapiens (Human), UniProt O14744). As to the kind of experiment: PRMT5:MEP50 FlashPlate Assay (histone H4 peptide substrate, plus and minus MTA). The class given is biochemical. On the procedure:
The PRMT5 inhibitory activity of compounds of the present invention was determined using either a PRMT5:MEP50 FlashPlate Assay (Reaction Biology Corporation) or a PRMT5:MEP50 HotSpot Assay (Reaction Biology Corporation).
1. PRMT5:MEP50 FlashPlate Assay

Where [1] appears, read: IC50 + 2 μM MTA (nM), in the presence of 2 μM MTA.
[2] abbreviates: in the absence of MTA, read-out: IC50.

PRMT5/MEP50 complex, sequence (O14744 2-637): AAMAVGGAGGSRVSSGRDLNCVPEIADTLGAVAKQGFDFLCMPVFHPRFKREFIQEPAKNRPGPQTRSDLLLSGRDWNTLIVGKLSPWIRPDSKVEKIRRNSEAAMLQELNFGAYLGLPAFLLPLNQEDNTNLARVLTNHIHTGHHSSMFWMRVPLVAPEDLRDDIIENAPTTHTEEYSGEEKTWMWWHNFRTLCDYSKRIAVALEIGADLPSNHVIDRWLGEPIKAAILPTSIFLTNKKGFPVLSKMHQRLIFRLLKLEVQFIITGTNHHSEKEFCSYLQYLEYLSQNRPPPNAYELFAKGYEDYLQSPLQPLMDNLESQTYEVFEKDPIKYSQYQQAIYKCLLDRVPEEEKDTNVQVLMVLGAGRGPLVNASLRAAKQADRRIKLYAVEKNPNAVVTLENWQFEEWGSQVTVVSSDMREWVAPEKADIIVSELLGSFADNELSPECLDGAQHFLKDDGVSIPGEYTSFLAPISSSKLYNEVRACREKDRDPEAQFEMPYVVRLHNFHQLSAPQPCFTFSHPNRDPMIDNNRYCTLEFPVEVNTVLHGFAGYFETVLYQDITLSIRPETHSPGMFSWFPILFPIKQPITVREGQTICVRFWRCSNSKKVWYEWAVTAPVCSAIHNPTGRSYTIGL
PRMT5/MEP50 complex, sequence (Q9BQA1 2-342 partner): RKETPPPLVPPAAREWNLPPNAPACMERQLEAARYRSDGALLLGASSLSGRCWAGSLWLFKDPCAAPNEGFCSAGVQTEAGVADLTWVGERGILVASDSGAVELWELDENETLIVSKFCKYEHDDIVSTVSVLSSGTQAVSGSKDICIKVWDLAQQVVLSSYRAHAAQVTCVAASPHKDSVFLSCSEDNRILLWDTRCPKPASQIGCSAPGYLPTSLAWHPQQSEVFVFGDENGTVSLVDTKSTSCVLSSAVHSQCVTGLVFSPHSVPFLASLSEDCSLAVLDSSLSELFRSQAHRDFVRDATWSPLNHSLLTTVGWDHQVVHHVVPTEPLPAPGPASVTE

Consider `N#Cc1ccc(Oc2cncc(-c3ccc4c(=O)[nH]nc(CN)c4c3)c2)cc1` [Example 7-6, 4-((5-(4-(aminomethyl)-1-oxo-1,2-dihydrophthalazin-6-yl)pyridin-3-yl)oxy)benzonitrile], for which the IC50 (commonly the midpoint of a concentration-inhibition curve) reads like this: under setting [1], 18 nM; under setting [2], 577 nM.
Taken in the same sequence, the figures for `Cc1ccc(-c2ccc3c(=O)[nH]nc(CN)c3c2)cn1` [Example 3-5, 4-(aminomethyl)-6-(6-methylpyridin-3-yl)phthalazin-1(2H)-one] were 7400 nM and 87900 nM.
On the same counts, the results for `NCc1n[nH]c(=O)c2ccc(-c3cncc4nccn34)cc12` [Example 4-12, 4-(aminomethyl)-6-(imidazo[1,2-a]pyrazin-5-yl)phthalazin-1(2H)-one] are 7400 nM and greater than 100000 nM.
On the same counts, the results for `COc1ccccc1Oc1cncc(-c2ccc3c(=O)[nH]nc(CN)c3c2)c1` [Example 4-78, 4-(aminomethyl)-6-(5-(2-methoxyphenoxy)pyridin-3-yl)phthalazin-1(2H)-one] are 0.5 nM and 66 nM.
For `NCc1n[nH]c(=O)c2ccc(-c3cnc4ccccn34)cc12` [Example 4-3, 4-(aminomethyl)-6-(imidazo[1,2-a]pyridin-3-yl)phthalazin-1(2H)-one], the IC50 by setting is: under setting [1], 37 nM; under setting [2], 926 nM.
Taken in the same sequence, the figures for `Cn1ncc(-c2ccc3c(=O)[nH]nc(CN)c3c2)c1C#N` [Example 4-31, 4-(4-(aminomethyl)-1-oxo-1,2-dihydrophthalazin-6-yl)-1-methyl-1H-pyrazole-5-carbonitrile] were 410 nM and 7630 nM.
On the same counts, the results for `Cn1ncc(-c2ccc3c(=O)[nH]nc(CN)c3c2)c1-c1cccc(F)c1` [Example 4-91, 4-(aminomethyl)-6-(5-(3-fluorophenyl)-1-methyl-1H-pyrazol-4-yl)phthalazin-1(2H)-one] are 16 nM and 249 nM.
Taken in the same sequence, the figures for `Cc1ccc2ncc(-c3ccc4c(=O)[nH]nc(CN)c4c3)n2c1` [Example 4-20, 4-(aminomethyl)-6-(6-methylimidazo[1,2-a]pyridin-3-yl)phthalazin-1(2H)-one] were 47 nM and 1020 nM.
For the molecule `NCc1n[nH]c(=O)c2ccc(-c3cnn4c3CN(C(=O)C35CC(C3)C5)CC4)cc12` [Example 4-89, 4-(aminomethyl)-6-(5-(bicyclo[1.1.1]pentane-1-carbonyl)-4,5,6,7-tetrahydropyrazolo[1,5-a]pyrazin-3-yl)phthalazin-1(2H)-one], the IC50 under setting [1] was found to be 64 nM and the IC50 under setting [2] worked out at 1220 nM.
On the same counts, the results for `NCc1n[nH]c(=O)c2ccc(-c3cnn4c3CN(C(=O)c3ccccc3)CC4)cc12` [Example 4-90, 4-(aminomethyl)-6-(5-benzoyl-4,5,6,7-tetrahydropyrazolo[1,5-a]pyrazin-3-yl)phthalazin-1(2H)-one] are 82 nM and 2730 nM.
`Cc1ccccc1-c1ccc2c(=O)[nH]nc(CN)c2c1` [Example 3-60, 4-(aminomethyl)-6-(o-tolyl)phthalazin-1(2H)-one]: the IC50 was 8100 nM under setting [1] and greater than 100000 nM under setting [2].
Consider `Cc1ccc(Oc2cncc(-c3ccc4c(=O)[nH]nc(CN)c4c3)c2)cc1Cl` [Example 4-74, 4-(aminomethyl)-6-(5-(3-chloro-4-methylphenoxy)pyridin-3-yl)phthalazin-1(2H)-one], for which the half-maximal inhibitory concentration (IC50) under setting [1] stood at 1.1 nM and the IC50 under setting [2] stood at 76 nM.
Taken in the same sequence, the figures for `Cc1ccc(Oc2cncc(-c3ccc4c(=O)[nH]nc(CN)c4c3)c2)c(C)c1Cl` [Example 4-76, 4-(aminomethyl)-6-(5-(3-chloro-2,4-dimethylphenoxy)pyridin-3-yl)phthalazin-1(2H)-one] were 1.3 nM and 31 nM.
Take `Cc1nc2cnccn2c1-c1ccc2c(=O)[nH]nc(CN)c2c1` [Example 4-23, 4-(aminomethyl)-6-(2-methylimidazo[1,2-a]pyrazin-3-yl)phthalazin-1(2H)-one]: the IC50 is, setting by setting: under setting [1], greater than 100000 nM; under setting [2], greater than 100000 nM.
With `Cn1cc(-c2ccc3c(CN)n[nH]c(=O)c3c2)cn1` [Example 1-8, 4-(aminomethyl)-7-(1-methyl-1H-pyrazol-4-yl)phthalazin-1(2H)-one], the IC50 runs as follows: under setting [1], 10000 nM; under setting [2], greater than 100000 nM.
On to `NCc1n[nH]c(=O)c2ccc(-c3cncc(Oc4ccccc4F)c3)cc12` [Example 4-70, 4-(aminomethyl)-6-(5-(2-fluorophenoxy)pyridin-3-yl)phthalazin-1(2H)-one], for which the IC50 by setting is: under setting [1], 10 nM; under setting [2], 221 nM.
Taken in the same sequence, the figures for `Cc1ncc(-c2ccc3c(=O)[nH]nc(CN)c3c2)n1C` [Example 4-4, 4-(aminomethyl)-6-(1,2-dimethyl-1H-imidazol-5-yl)phthalazin-1(2H)-one] were 230 nM and 5910 nM.
On the same counts, the results for `N#Cc1ccc(-c2cncc(-c3ccc4c(=O)[nH]nc(CN)c4c3)c2)c(C#N)c1` [Example 8-2, 4-(5-(4-(aminomethyl)-1-oxo-1,2-dihydrophthalazin-6-yl)pyridin-3-yl)isophthalonitrile] are 36 nM and 3150 nM.
With `Cn1nc(C(F)(F)F)cc1-c1ccc2c(=O)[nH]nc(CN)c2c1` [Example 3-20, 4-(aminomethyl)-6-(1-methyl-3-(trifluoromethyl)-1H-pyrazol-5-yl)phthalazin-1(2H)-one], under setting [1], the IC50 was 53000 nM.
Turning to `NCc1n[nH]c(=O)c2ccc(-c3cnn4c3CN(C(=O)C3CCC3)CC4)cc12` [Example 4-86, 4-(aminomethyl)-6-(5-(cyclobutanecarbonyl)-4,5,6,7-tetrahydropyrazolo[1,5-a]pyrazin-3-yl)phthalazin-1(2H)-one], the IC50 amounted to 11 nM under setting [1] and 731 nM under setting [2].
Taken in the same sequence, the figures for `NCc1n[nH]c(=O)c2ccc(-c3cncc(Oc4ccc(Cl)cc4)c3)cc12` [Example 7-4, 4-(aminomethyl)-6-(5-(4-chlorophenoxy)pyridin-3-yl)phthalazin-1(2H)-one] were 5.6 nM and 151 nM.
For `N#Cc1cncc(-c2ccc3c(=O)[nH]nc(CN)c3c2)c1F` [Example 3-38], the IC50 under setting [2] amounted to 4940 nM and the IC50 (read-out: IC50 + 2 μM MTA, in the presence of 2 μM MTA) was 370 nM.
As for `CC(C)Oc1cncc(-c2ccc3c(=O)[nH]nc(CN)c3c2)c1` [Example 3-52, 4-(aminomethyl)-6-(5-isopropoxypyridin-3-yl)phthalazin-1(2H)-one], the IC50 under setting [1] was found to be 370 nM and the IC50 under setting [2] is 3000 nM.
With `Cn1cc(-c2ccc3c(=O)[nH]nc(CN)c3c2)c2cccnc21` [Example 3-29, 4-(aminomethyl)-6-(1-methyl-1H-pyrrolo[2,3-b]pyridin-3-yl)phthalazin-1(2H)-one], the IC50 under setting [1] is 10000 nM.
Regarding `Cn1cncc1-c1ccc2c(=O)[nH]nc(CN)c2c1` [Example 3-30, 4-(aminomethyl)-6-(1-methyl-1H-imidazol-5-yl)phthalazin-1(2H)-one], the IC50 under setting [1] turned out to be 7700 nM and the IC50 under setting [2] came out at 85200 nM.
On the same counts, the results for `NCc1n[nH]c(=O)c2ccc(-c3cncc([S+]([O-])c4ccccc4)c3)cc12` (stereo not shown) [Example 4-111, 4-(aminomethyl)-6-(5-(phenylsulfinyl)pyridin-3-yl)phthalazin-1(2H)-one] are 12 nM and 472 nM.
Taken in the same sequence, the figures for `NCc1n[nH]c(=O)c2ccc(-c3cnc4ccc(Cl)cn34)cc12` [Example 4-34, 4-(aminomethyl)-6-(6-chloroimidazo[1,2-a]pyridin-3-yl)phthalazin-1(2H)-one] were 110 nM and 2800 nM.
Taken in the same sequence, the figures for `NCc1n[nH]c(=O)c2ccc(-c3cnco3)cc12` [Example 3-28, 4-(aminomethyl)-6-(oxazol-5-yl)phthalazin-1(2H)-one] were greater than 100000 nM and greater than 100000 nM.
As for `CS(=O)(=O)c1cncc(-c2ccc3c(=O)[nH]nc(CN)c3c2)c1` [Example 3-48, 4-(aminomethyl)-6-(5-(methylsulfonyl)pyridin-3-yl)phthalazin-1(2H)-one], the IC50 by setting is: under setting [1], 280 nM; under setting [2], 7980 nM.
On the same counts, the results for `Cc1ccc(C#N)c(-c2cncc(-c3ccc4c(=O)[nH]nc(CN)c4c3)c2)c1` [Example 8-7, 2-(5-(4-(aminomethyl)-1-oxo-1,2-dihydrophthalazin-6-yl)pyridin-3-yl)-4-methylbenzonitrile] are 33 nM and 931 nM.
Regarding `Cn1cc(-c2ccc3c(=O)[nH]nc(CN)c3c2)c(C(F)(F)F)n1` [Example 3-25, 4-(aminomethyl)-6-(1-methyl-3-(trifluoromethyl)-1H-pyrazol-4-yl)phthalazin-1(2H)-one], the IC50 under setting [1] came out at 71000 nM and the IC50 under setting [2] is greater than 100000 nM.
On the same counts, the results for `NCc1n[nH]c(=O)c2ccc(-c3cccnc3)cc12` [Example 1-5, 4-(aminomethyl)-6-(pyridin-3-yl)phthalazin-1(2H)-one] are 1400 nM and 34800 nM.
Taken in the same sequence, the figures for `NCc1n[nH]c(=O)c2ccc(-c3cncn3Cc3ccccc3)cc12` [Example 4-108, 4-(aminomethyl)-6-(1-benzyl-1H-imidazol-5-yl)phthalazin-1(2H)-one] were 900 nM and 8650 nM.
On the same counts, the results for `NCc1n[nH]c(=O)c2ccc(-c3cnc4[nH]cc(CO)c4c3)cc12` [Example 4-47, 4-(aminomethyl)-6-(3-(hydroxymethyl)-1H-pyrrolo[2,3-b]pyridin-5-yl)phthalazin-1(2H)-one] are 19 nM and 667 nM.
Regarding `CC#Cc1cncc(-c2ccc3c(=O)[nH]nc(CN)c3c2)c1` [Example 3-39, 4-(aminomethyl)-6-(5-(prop-1-yn-1-yl)pyridin-3-yl)phthalazin-1(2H)-one], the IC50 worked out at 920 nM under setting [1] and 24300 nM under setting [2].
For `NCc1n[nH]c(=O)c2ccc(-c3cncc(Cl)c3)cc12` [Example 3-42, 4-(aminomethyl)-6-(5-chloropyridin-3-yl)phthalazin-1(2H)-one], the IC50 amounted to 200 nM under setting [1] and 3580 nM under setting [2].
